Earlier results in patent publication EP4643845A1, “COSMETIC COMPOSITION” (Shiseido Company, Ltd., priority 2022, dated 2024).
*1 amine or outer side, *2 acyl side, *3 side chain or, on linkers, in order; H or OH if unused. Where a SMILES comes first, the peptide text is derived from it. Bridges are numbered along the chain shown (N, C = ends). X1 = CC(C)CCCCCCCCCC(CC(=O)[*:1])O[*:2]

Conditions: according to relevant reports

In the case of `CC(C)CCCCCCCCCC1CC(=O)NC(CCC(=O)O)C(=O)NC(CC(C)C)C(=O)NC(CC(C)C)C(=O)NC(C(C)C)C(=O)NC(CC(=O)O)C(=O)NC(CC(C)C)C(=O)NC(CC(C)C)C(=O)O1` (stereo not shown) [formula (1)] (ELLVDLL; linker N-C via X1; configuration not given here), the “critical micelle concentration (CMC)” value is given as 0.0003 % (mass fraction).
